Read-outs that look alike come from different tables or passages of the source.
Columns and labels:
human TRPV1 = biological target: T1, human TRPV1 (Homo sapiens, UniProt Q8NER1, M315I/T336M); assay: Intracellular calcium (Fluo-4, FLIPR) activation of TRPV1 cells by GRAS compounds; format: cell-based; details: for activation at 1000 µM / activation at 100 µM: read-out: V1 activation, % of agonist value;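 for all read-outs here: TRPV1-expressing cells, FLIPR fluorescence at 488/514 nm with baseline subtracted, sampled every 2 s for 10 min after adding compound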
T1 construct: expressed in transfected cells; pcDNA3 control cells
T1 sequence (Q8NER1 whole entry M315I/T336M): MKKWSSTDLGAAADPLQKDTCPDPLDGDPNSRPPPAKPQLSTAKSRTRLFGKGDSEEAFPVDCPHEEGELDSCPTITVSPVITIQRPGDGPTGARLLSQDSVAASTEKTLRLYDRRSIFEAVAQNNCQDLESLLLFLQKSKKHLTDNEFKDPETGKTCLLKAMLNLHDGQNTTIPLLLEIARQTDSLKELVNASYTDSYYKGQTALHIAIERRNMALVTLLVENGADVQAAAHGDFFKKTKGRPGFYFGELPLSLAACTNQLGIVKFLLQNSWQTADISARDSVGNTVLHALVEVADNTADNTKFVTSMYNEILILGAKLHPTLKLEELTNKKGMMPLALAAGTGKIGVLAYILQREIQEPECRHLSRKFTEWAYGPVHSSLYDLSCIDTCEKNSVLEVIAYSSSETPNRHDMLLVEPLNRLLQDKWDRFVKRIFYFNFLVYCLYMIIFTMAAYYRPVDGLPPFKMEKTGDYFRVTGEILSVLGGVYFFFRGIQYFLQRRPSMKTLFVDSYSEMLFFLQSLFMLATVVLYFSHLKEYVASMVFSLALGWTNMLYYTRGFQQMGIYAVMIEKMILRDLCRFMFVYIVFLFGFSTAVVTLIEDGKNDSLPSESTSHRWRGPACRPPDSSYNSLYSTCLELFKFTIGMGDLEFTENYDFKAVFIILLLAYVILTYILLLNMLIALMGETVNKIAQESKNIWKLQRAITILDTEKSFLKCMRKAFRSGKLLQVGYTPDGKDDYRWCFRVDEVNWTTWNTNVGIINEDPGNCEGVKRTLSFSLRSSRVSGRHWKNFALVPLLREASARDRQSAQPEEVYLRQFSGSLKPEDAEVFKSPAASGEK

TRPA1V1 = assay: Intracellular calcium (Fluo-4, FLIPR) activation of TRPA1V1 cells (co-expressing TRPA1 and TRPV1) by GRAS compounds; format: cell-based, human;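 note: HEK293 cells co-expressing TRPA1 and TRPV1, fluorescence read at 488/514 nm after baseline subtraction, recorded every 2 s over 10 min, ionomycin 10 µM and buffer as controls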
Protocol: TRPV1, TRPA1, TRPA1V1 and pcDNA3 cells were grown in 15 mL growth medium [high glucose DMEM (Dulbecco's modification of Eagle's medium) supplemented with 10% FBS (fetal bovine serum), 100 μg/mL penicillin/streptomycin, 100 μg/mL G418] in a 75 cm^2 flask for 3 days in a mammalian cell culture incubator at 33° C. and 5% CO2. TRP Cells were detached with 8 mL of PBS (without calcium or magnesium); for pcDNA3 cells, trypsin was used for releasing the cells. The detached cells were spun at low speed (800-900 rpm for 3 min) to pellet the cells. […] The cells were washed once with 45 mL assay buffer (1×HBSS, 20 mM HEPES) by low speed centrifugation (800-900 rpm for 3 min) and resuspended in 11 mL of the assay buffer in a reagent reservoir. […] The plates were set at room temperature for 30 min. The plates were read in a FLIPR^TETRA instrument (Molecular Devices, Sunnyvale, Calif.) at λex 488 nm and λem 514 nm to record baseline fluorescence following which 20 μL of test material at 1 mM or 100 μM final concentration for pure compounds in a GRAS library or 0.004% for extracts. For agonists, capsaicin 350 nM and AITC at 30 μM; and for controls, ionomycin 10 μM and buffer alone) was added to each well using the dispenser provided in the FLIPR. The data point was recorded every 2 seconds for a total of 10 min.
Average value for activation from three independent assay plates are presented as % of agonist value (AITC, 30 μM for TRPA1 and capsaicin, 350 nM for TRPV1. For TRPA1V1, we used AITC, 30 μM or capsaicin, 350 nM depending on if the compound is an A1 agonist or a V1 agonist. For compounds that activated both A1 and V1, we used AITC for normalization). Variation among triplicates was within 10% of each other. Assayed at 1 mM for pure compounds and 0.004% for extracts.

human TRPA1 = biological target: T2, human TRPA1 (Homo sapiens, UniProt O75762, K186N/R3C/R58T); assay: Intracellular calcium (Fluo-4, FLIPR) activation of TRPA1 cells by GRAS compounds; format: cell-based; details: for activation at 1000 µM / activation at 100 µM: read-out: A1 activation, % of agonist value;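 for all read-outs here: TRPA1-expressing cells, fluorescence read on a FLIPR Tetra (ex 488 nm, em 514 nm) every 2 s for 10 min after compound addition, baseline subtracted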
T2 construct: expressed in transfected cells; pcDNA3 control cells
T2 sequence (O75762 whole entry R3C/R58T/K186N): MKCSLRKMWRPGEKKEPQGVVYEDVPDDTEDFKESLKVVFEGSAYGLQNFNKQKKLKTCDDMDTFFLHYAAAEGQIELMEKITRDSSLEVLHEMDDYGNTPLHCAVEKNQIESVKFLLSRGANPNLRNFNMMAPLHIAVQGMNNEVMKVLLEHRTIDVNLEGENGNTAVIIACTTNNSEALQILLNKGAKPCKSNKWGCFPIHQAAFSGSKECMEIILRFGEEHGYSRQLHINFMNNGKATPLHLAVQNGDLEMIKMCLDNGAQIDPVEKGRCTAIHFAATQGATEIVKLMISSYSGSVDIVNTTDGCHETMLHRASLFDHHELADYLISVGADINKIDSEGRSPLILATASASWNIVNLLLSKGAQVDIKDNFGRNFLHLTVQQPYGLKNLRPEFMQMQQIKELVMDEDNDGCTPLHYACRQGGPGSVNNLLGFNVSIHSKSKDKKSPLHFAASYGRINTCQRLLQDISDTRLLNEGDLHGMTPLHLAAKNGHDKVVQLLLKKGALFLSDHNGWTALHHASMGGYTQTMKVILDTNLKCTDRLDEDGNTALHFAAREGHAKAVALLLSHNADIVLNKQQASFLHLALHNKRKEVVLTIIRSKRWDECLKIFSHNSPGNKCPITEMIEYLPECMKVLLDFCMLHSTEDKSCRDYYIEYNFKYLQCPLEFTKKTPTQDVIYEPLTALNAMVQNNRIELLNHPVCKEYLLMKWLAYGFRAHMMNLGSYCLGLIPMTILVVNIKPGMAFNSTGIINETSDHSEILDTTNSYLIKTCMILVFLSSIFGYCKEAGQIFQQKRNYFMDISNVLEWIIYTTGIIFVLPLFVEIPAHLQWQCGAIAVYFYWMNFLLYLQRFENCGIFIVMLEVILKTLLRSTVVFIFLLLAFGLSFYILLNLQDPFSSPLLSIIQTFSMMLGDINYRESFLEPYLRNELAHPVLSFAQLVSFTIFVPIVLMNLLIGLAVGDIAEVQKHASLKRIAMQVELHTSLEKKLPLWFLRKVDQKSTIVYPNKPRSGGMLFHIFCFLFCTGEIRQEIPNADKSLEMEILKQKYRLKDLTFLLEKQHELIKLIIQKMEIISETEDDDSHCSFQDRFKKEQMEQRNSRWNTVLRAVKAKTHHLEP

[1] = Table 1(a), 1 mM, relative to capsaicin 350 nM, average of three plates
[2] = Table 1(a), 1 mM, relative to AITC 30 μM, average of three plates
[3] = Table 1(i), 1 mM, relative to capsaicin 350 nM, […]
[4] = statement in description, see Table 1(i)
[5] = Table 1(i), 1 mM, relative to AITC 30 μM or capsaicin 350 nM depending on compound, […]
[6] = Table 1(i), 1 mM, relative to AITC 30 μM, […]
[7] = Table 1(b), 1 mM, relative to capsaicin 350 nM
[8] = Table 1(b), 1 mM, relative to AITC 30 μM
[9] = Table 1(a), 100 μM (*), relative to AITC 30 μM
[10] = Table 1(c), 1 mM, relative to AITC 30 μM
[11] = Table 1(b), 100 μM (*), relative to AITC 30 μM

With `S=C=NCc1ccccc1` [Isothiocyanic acid, benzyl ester] the activation at 1000 µM (human TRPV1; [1]) was 59.2%, the “A1V1 activation, % of agonist value” (TRPA1V1; [2]) was 180.5% and the activation at 1000 µM (human TRPA1; [2]) was 110%.
For `CCCCC/C=C\C/C=C\CCCCCCCC(=O)O` [Linoleic acid], the activation at 1000 µM (human TRPV1; [1]) was 24.9%, the “A1V1 activation, % of agonist value” (TRPA1V1; [2]) was 170.4% and the activation at 1000 µM (human TRPA1; [2]) was 170%.
With `O=C(O)CC(O)C(=O)O` (centres unmarked) [Malic acid] the activation at 1000 µM (human TRPV1; [3]) was 67.5%, the “TRPV1 activation selectivity, in words” value (human TRPV1; [4]) was “TRPV1 activators which do not modulate TRPA1 or TRPA1V1” and the “A1V1 activation, % of agonist value” (TRPA1V1; [5]) was 2.4%. For the same molecule, the activation at 1000 µM (human TRPA1; [6]) was 1.9%.
In the case of `COC(=O)C1CCCCC1` [Methyl cyclohexanecarboxylate], the activation at 1000 µM (human TRPV1; [7]) is reported as 69.5%, the “A1V1 activation, % of agonist value” (TRPA1V1; [8]) is reported as 85.17% and the activation at 1000 µM (human TRPA1; [8]) is reported as 45.5%.
In the case of `CC/C=C\C/C=C\C/C=C\CCCCCCCC(=O)OC` [Methyl linolenate], the activation at 1000 µM (human TRPV1; [1]) is reported as 31%, the “A1V1 activation, % of agonist value” (TRPA1V1; [2]) is reported as 104% and the activation at 1000 µM (human TRPA1; [2]) is reported as 108%.
With `CCCCCCCCC(=O)NCc1ccc(O)c(OC)c1` [Nonivamide, N-Vanillylnonanamide] the activation at 100 µM (human TRPV1) was 65.5%, the activation at 1000 µM (human TRPV1) was 91.4% and the “A1V1 activation, % of agonist value” (TRPA1V1; Table 1(g), 1 mM, relative to capsaicin 350 nM) was 135.6%. The “A1V1 activation, % of agonist value” (TRPA1V1; Table 1(i), 100 μM (*), relative to AITC 30 μM or capsaicin 350 nM depending on compound, values less than 20-25% considered inactive) was 1.2% and the activation at 100 µM (human TRPA1) was 69%.
With `C=C(C)[C@@H]1CC=C(CO)CC1` [Perillyl alcohol] the activation at 1000 µM (human TRPV1; [1]) was 20.4%, the “A1V1 activation, % of agonist value” (TRPA1V1; [2]) was 73.28% and the activation at 1000 µM (human TRPA1; [2]) was 82%.
With `O=C(O)C(=O)Cc1ccccc1` [Phenylpyruvic acid] the activation at 1000 µM (human TRPV1; [1]) was 32.5%, the “A1V1 activation, % of agonist value” (TRPA1V1; [2]) was 74.05% and the activation at 1000 µM (human TRPA1; [2]) was 68%.
With `O=C(CCc1ccc(O)cc1)c1c(O)cc(O)cc1O` [Phloretin] the activation at 100 µM (human TRPV1; Table 1(a), 100 μM (*), relative to capsaicin 350 nM) was 122%, the “A1V1 activation, % of agonist value” (TRPA1V1; [9]) was 174.3% and the activation at 100 µM (human TRPA1; [9]) was 160%.
With `CC1=CC(=O)C(C(C)C)CC1` (centres unmarked) [Piperitone] the activation at 1000 µM (human TRPV1; [7]) was 53.3%, the “A1V1 activation, % of agonist value” (TRPA1V1; [8]) was 109.1% and the activation at 1000 µM (human TRPA1; [8]) was 90.1%.
For `CC(=O)OCc1ccc2c(c1)OCO2` [Piperonyl acetate], the activation at 1000 µM (human TRPV1) was 20.9%, the “A1V1 activation, % of agonist value” (TRPA1V1; [8]) was 78.00% and the activation at 1000 µM (human TRPA1) was 62.7%.
In the case of `CC(C)C(=O)OCc1ccc2c(c1)OCO2` [Piperonyl isobutyrate], the activation at 1000 µM (human TRPV1; [7]) is reported as 30%, the “A1V1 activation, % of agonist value” (TRPA1V1; [8]) is reported as 82.33% and the activation at 1000 µM (human TRPA1; [8]) is reported as 61%.
In the case of `CCCSSc1ccoc1C` [Propyl 2-methyl-3-furyl disulfide], the activation at 1000 µM (human TRPV1; [1]) is reported as 25%, the “A1V1 activation, % of agonist value” (TRPA1V1; [2]) is reported as 194.3% and the “A1V1 activation, % of agonist value” (TRPA1V1; [10]) is reported as 242.5%. It also gave an activation at 1000 µM (human TRPA1; [2]) of 210% and an activation at 1000 µM (human TRPA1; [10]) of 266%.
In the case of `CCCOC(=O)c1ccc(O)cc1` [Propylparaben], the activation at 1000 µM (human TRPV1; [3]) is reported as 1.6%, the “A1V1 activation, % of agonist value” (TRPA1V1; [5]) is reported as 2.1% and the activation at 1000 µM (human TRPA1; [6]) is reported as 93.2%. The “TRPA1 activation selectivity, in words” value (human TRPA1; [4]) was “TRPA1 activator which does not modulate TRPV1 or TRPA1V1”.
In the case of `CC(=O)/C=C/C=C(\C)CCC=C(C)C` [Pseudoionone], the “V1 activation, % of agonist value” (human TRPV1; [1]) is reported as 20.76%, the “A1V1 activation, % of agonist value” (TRPA1V1; [2]) is reported as 127.2% and the “A1 activation, % of agonist value” (human TRPA1; [2]) is reported as 105.5%.
In the case of `CC/C=C\CCOC(=O)C(C)=O` [Pyruvic caid cis-3-hexen-1-yl ester], the “V1 activation, % of agonist value” (human TRPV1; [1]) is reported as 21%, the “A1V1 activation, % of agonist value” (TRPA1V1; [2]) is reported as 40% and the “A1 activation, % of agonist value” (human TRPA1; [2]) is reported as 45%.
In the case of `CCCCCCCCCCCCCCCC(=O)OC/C=C(C)/C=C/C=C(C)/C=C/C1=C(C)CCCC1(C)C` [Retinol palmitate], the activation at 1000 µM (human TRPV1; [1]) is reported as 32.8%, the “A1V1 activation, % of agonist value” (TRPA1V1; [2]) is reported as 76.97% and the activation at 1000 µM (human TRPA1; [2]) is reported as 76.4%.
With `O=C1NS(=O)(=O)c2ccccc21` [Saccharin] the activation at 1000 µM (human TRPV1) was 80.8%, the “A1V1 activation, % of agonist value” (TRPA1V1) was 93.25% and the activation at 1000 µM (human TRPA1) was 92.6%.
For `Cc1ccc(C(C)C)c(O)c1` [Thymol], the activation at 1000 µM (human TRPV1; [7]) was 106%, the “A1V1 activation, % of agonist value” (TRPA1V1; [8]) was 105.7% and the activation at 1000 µM (human TRPA1; [8]) was 159%.
With `CCCCCC/C=C/C=C/C=O` [Trans,trans-2,4-undecadien-1-al] the activation at 100 µM (human TRPV1; Table 1(b), 100 μM (*), relative to capsaicin 350 nM) was 87.5%, the “A1V1 activation, % of agonist value” (TRPA1V1; [11]) was 38.4% and the “A1V1 activation, % of agonist value” (TRPA1V1; [10]) was 85.4%. The activation at 100 µM (human TRPA1; [11]) was 74% and the activation at 1000 µM (human TRPA1; [10]) was 86.4%.
With `CCCCC/C=C/CO` [Trans-2-Octen-1-ol] the activation at 1000 µM (human TRPV1; [1]) was 26%, the “A1V1 activation, % of agonist value” (TRPA1V1; [2]) was 103.2% and the activation at 1000 µM (human TRPA1; [2]) was 118%.

— patent US9427415B2, “Methods and compositions for modifying sensorial perception” (The Procter & Gamble Company, priority 2014, dated 2016)
